One assay relates to DKK-1. Description: DKK-1 synthesis and release, ELISA. The note with it: tested at 100 nm; p<0.01. The assay is classed as cell-based, human. The procedure:
The object of this study is to evaluate the effect of the compound known as “peregrina peptide hydrolyzate” on DKK-1 synthesis and release in a model composed of normal human fibroblasts in monolayer culture.
Protocol: Human fibroblast cells were obtained from a donor. To perform the experiments, the fibroblasts were grown as a monolayer culture until confluence was reached. 100 nM dexamethasone was used as a reference inducer of DKK-1 synthesis and release.
[…] were incubated for 48 hours in the absence (control) or presence of reference product or test product: Peregrina peptide hydrolyzate: 0.01%; 0.1% and 0.5% (v/v).
At the end of the incubation, the incubation media were removed to perform the DKK-1 release measurement.
The test compound “peregrina peptide hydrolyzate” was diluted directly in the incubation medium so as to reach the various concentrations described above.
At the end of the 48-hour incubation period, the DKK-1 released into the incubation media was quantified by means of a specific sensitive ELISA kit.
At the end of the incubation period, the proteins contained in the cell lyzates were quantified by means of a spectrocolorimetric method (Bradford method).
The results are expressed as ng DKK-1 per mg of protein (mean±S.D.).
A general note: ELISA stands for enzyme-linked immunosorbent assay.

Assay [1] has as its system mouse embryo fibroblasts of the Balb/c 3T3 clone 31 line. Description: In vitro phototoxicity test 3T3 NRU. It counts as cell-based. The note with it: BALB/c3T3, light or radiation study.
Protocol: The cytotoxicity is evaluated by determining cell viability using a vital stain: neutral red, 24 hours after treatment with the reference elements and the extract of M. peregrina according to the invention with or without UVA irradiation. […] The positive control is a chlorpromazine solution (CAS No.: 69-09-0). The negative control is a diluent for the test extract and for the reference (buffered saline solution±1% solvent). The peptide hydrolyzate was tested at eight concentrations in at least four culture wells per concentration studied, in the presence or absence of UVA. […]
The seeded plates were incubated for 24 hours at 37° C. and 5% CO2. […] The pH of the highest concentration was measured; it was between 6.5 and 7.8. […] The spectral irradiance of the test device was measured in the wavelength range from 250 to 700 nanometers with a calibrated spectroradiometer.
One of the two plates was irradiated with its cover on at room temperature, and the other plate was protected from UVA and was maintained at room temperature during the irradiation. […] The next day, the cell viability (growth, morphology, monolayer integrity) was evaluated by observations using a phase-contrast microscope. […] The absorbance values were measured at 450 nm.

Converted amounts (≈) assume the structure as drawn.

`C[C@@H]1C[C@H]2[C@@H]3CCC4=CC(=O)C=C[C@]4(C)[C@@]3(F)[C@@H](O)C[C@]2(C)[C@@]1(O)C(=O)CO` [dexamethasone]: the “increase of released DKK-1 relative to the control” value with DKK-1 came to 181.8%.
On to `CN(C)CCCN1c2ccccc2Sc2ccc(Cl)cc21` [Chlorpromazine, chlorpromazine], for which the IC50 was in the range of 7 to 90 µg/mL (≈ 22 to 282 µM) in assay [1] (in the absence of UVA) and 0.1 to 2 µg/mL in assay [1] (in the presence of UVA).

The term IC50 denotes the concentration that inhibits the measured activity by half.

These data come from patent US12303587B2, “Extract of Moringa peregrina seed cake, method for obtaining same and use thereof in cosmetic or nutricosmetic compositions” (AGENCE FRANCAISE POUR LE DEVELOPPEMENT D'AL ULA, priority 2020, dated 2025).
